Reference: US11267825B2 (AICURIS GMBH & CO. KG, priority 2017, dated 2022)

Key:
HBV core protein = HBV core protein (UniProt P03146); assay type: biochemical; settings: read-out: Assembly Activity (IC50); BODIPY-FL labelled core protein, assembly started with NaCl, read after 6 min
Procedure, shortened: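 Fluorescence-quenching assembly assay using E. coli-expressed core protein 1–149 plus Cys150, labelled with BODIPY-FL maleimide, at 1.0–2.0 μM in 50 mM HEPES pH 7.5, 0.5% DMSO. Assembly started with NaCl to […]; fluorescence (ex 477/em 525 nm) read after 6 min. EC50 by non-linear regression, 8-point 0.5-log dilutions.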

HBV = assay: Determination of HBV DNA from the supernatants of HepAD38 cells (anti-HBV activity); assay type: cell-based, hepatitis B virus; settings: Hepatitis B virus, 144 h; HBV DNA in HepAD38 supernatant at day 6; read-out: Cell Activity (EC50)
Procedure, shortened: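 HepAD38 cells (60,000/well) were treated with half-log compound dilutions in tetracycline-free medium to induce HBV production. On day 6, HBV DNA was purified from filtered supernatant and quantified by real-time PCR against plasmid standards. EC50 values came from non-linear regression of relative copy numbers, typically from three experiments in triplicate.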

HBV core protein, sequence (P03146 whole entry, looked up): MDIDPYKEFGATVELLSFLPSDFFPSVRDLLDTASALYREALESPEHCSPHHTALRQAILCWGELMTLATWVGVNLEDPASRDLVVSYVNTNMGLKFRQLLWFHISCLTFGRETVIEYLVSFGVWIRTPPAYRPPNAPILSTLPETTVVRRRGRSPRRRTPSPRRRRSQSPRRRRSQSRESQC

O=C(Nc1nc2c(s1)CN(C(=O)c1cc3ccccc3[nH]1)CC2)NS(=O)(=O)C1CC1 [Example 390, 3-(cyclopropanesulfonyl)-1-[5-(1H-indole-2-carbonyl)-4H,5H,6H,7H-[1,3]thiazolo[5,4-c]pyridin-2-yl]urea]
IC50 (HBV core protein): < 5 µM | EC50 (HBV): < 100 µM

CC(=O)N1CCC(C(=O)Nc2nc3c(s2)CN(C(=O)c2cc4ccccc4[nH]2)CC3)CC1 [Example 410, 1-acetyl-N-[5-(1H-indole-2-carbonyl)-4H,5H,6H,7H-[1,3]thiazolo[5,4-c]pyridin-2-yl]piperidine-4-carboxamide]
IC50 (HBV core protein): < 5 µM | EC50 (HBV): < 1 µM

Nc1nc2c(s1)CN(C(=O)c1cc3c(C(F)F)cc(F)cc3[nH]1)CC2 [Example 292, 5-[4-(difluoromethyl)-6-fluoro-1H-indole-2-carbonyl]-4H,5H,6H,7H-[1,3]thiazolo[5,4-c]pyridin-2-amine]
IC50 (HBV core protein): < 5 µM | EC50 (HBV): < 1 µM

O=C(c1cc2ccccc2[nH]1)N1CCc2nc(NCC(F)(F)CO)sc2C1 [Example 225, 2,2-difluoro-3-{[5-(1H-indole-2-carbonyl)-4H,5H,6H,7H-[1,3]thiazolo[5,4-c]pyridin-2-yl]amino}propan-1-ol]
IC50 (HBV core protein): < 5 µM | EC50 (HBV): < 1 µM

O=C(c1cc2ccccc2[nH]1)N1CCc2nc(NCC3(CO)CCOCC3)sc2C1 [Example 237, [4-({[5-(1H-indole-2-carbonyl)-4H,5H,6H,7H-[1,3]thiazolo[5,4-c]pyridin-2-yl]amino}methyl)oxan-4-yl]methanol]
IC50 (HBV core protein): < 5 µM | EC50 (HBV): < 1 µM

O=C(Nc1nc2c(s1)CN(C(=O)c1cc3c(F)cc(F)cc3[nH]1)CC2)C1CCOCC1 [Example 319, N-[5-(4,6-difluoro-1H-indole-2-carbonyl)-4H,5H,6H,7H-[1,3]thiazolo[5,4-c]pyridin-2-yl]oxane-4-carboxamide]
IC50 (HBV core protein): < 5 µM | EC50 (HBV): < 1 µM

O=C(c1cc2c(F)cc(F)cc2[nH]1)N1CCc2nc(OCCO)sc2C1 [Example 102, 2-{[5-(4,6-difluoro-1H-indole-2-carbonyl)-4H,5H,6H,7H-[1,3]thiazolo[5,4-c]pyridin-2-yl]oxy}ethan-1-ol]
IC50 (HBV core protein): 5 to 10 µM | EC50 (HBV): 1 to 10 µM

O=C(c1cc2ccccc2[nH]1)N1CCc2nc(CNC3CC3)sc2C1 [Example 38, N-{[5-(1H-indole-2-carbonyl)-4H,5H,6H,7H-[1,3]thiazolo[5,4-c]pyridin-2-yl]methyl}cyclopropanamine]
IC50 (HBV core protein): < 5 µM | EC50 (HBV): < 1 µM

Cc1nc2c(s1)CN(C(=O)c1cc3c(C)cc(F)cc3[nH]1)CC2 [Example 190, 6-fluoro-4-methyl-2-{2-methyl-4H,5H,6H,7H-[1,3]thiazolo[5,4-c]pyridine-5-carbonyl}-1H-indole]
IC50 (HBV core protein): < 5 µM | EC50 (HBV): < 1 µM

COCCC(=O)Nc1nc2c(s1)CN(C(=O)c1cc3ccccc3[nH]1)CC2 [Example 19, N-[5-(1H-indole-2-carbonyl)-4H,5H,6H,7H-[1,3]thiazolo[5,4-c]pyridin-2-yl]-3-methoxypropanamide]
IC50 (HBV core protein): < 5 µM | EC50 (HBV): < 1 µM

O=C(c1cc2c(Cl)cccc2[nH]1)N1CCc2nc(N[C@H]3CC[C@@H](O)CC3)sc2C1 [Example 302, (1s,4s)-4-{[5-(4-chloro-1H-indole-2-carbonyl)-4H,5H,6H,7H-[1,3]thiazolo[5,4-c]pyridin-2-yl]amino}cyclohexan-1-ol]
IC50 (HBV core protein): < 5 µM | EC50 (HBV): < 1 µM

O=C(c1cc2c(Cl)cc(F)cc2[nH]1)N1CCc2nc(NCC3CCOC3)sc2C1 (stereo not shown) [Example 101, 5-(4-chloro-6-fluoro-1H-indole-2-carbonyl)-N-[(oxolan-3-yl)methyl]-4H,5H,6H,7H-[1,3]thiazolo[5,4-c]pyridin-2-amine]
IC50 (HBV core protein): < 5 µM | EC50 (HBV): < 1 µM

NCc1nc2c(s1)CN(C(=O)c1cc3ccccc3[nH]1)CC2 [Example 18, [5-(1H-indole-2-carbonyl)-4H,5H,6H,7H-[1,3]thiazolo[5,4-c]pyridin-2-yl]methanamine]
IC50 (HBV core protein): < 100 µM | EC50 (HBV): 1 to 10 µM

O=C(c1cc2ccccc2[nH]1)N1CCc2nc(NCC(F)(F)F)sc2C1 [Example 118, 5-(1H-indole-2-carbonyl)-N-(2,2,2-trifluoroethyl)-4H,5H,6H,7H-[1,3]thiazolo[5,4-c]pyridin-2-amine]
IC50 (HBV core protein): < 100 µM | EC50 (HBV): < 1 µM

O=C(c1cc2ccc(Cl)cc2[nH]1)N1CCc2nc(N[C@H]3CC[C@@H](O)CC3)sc2C1 [Example 301, (1s,4s)-4-{[5-(6-chloro-1H-indole-2-carbonyl)-4H,5H,6H,7H-[1,3]thiazolo[5,4-c]pyridin-2-yl]amino}cyclohexan-1-ol]
IC50 (HBV core protein): < 5 µM | EC50 (HBV): < 1 µM

O=C(c1cc2ccccc2[nH]1)N1CCc2nc(CNCC3CCOC3)sc2C1 (stereo not shown) [Example 1, {[5-(1H-indole-2-carbonyl)-4H,5H,6H,7H-[1,3]thiazolo[5,4-c]pyridin-2-yl]methyl}[(oxolan-3-yl)methyl]amine]
IC50 (HBV core protein): < 100 µM | EC50 (HBV): 1 to 10 µM

Cc1nc2c(s1)CN(C(=O)c1cc3cccc(Cl)c3[nH]1)CC2 [Example 189, 7-chloro-2-{2-methyl-4H,5H,6H,7H-[1,3]thiazolo[5,4-c]pyridine-5-carbonyl}-1H-indole]
IC50 (HBV core protein): 5 to 10 µM | EC50 (HBV): 1 to 10 µM

CC(O)c1cccc2[nH]c(C(=O)N3CCc4nc(N)sc4C3)cc12 (stereo not shown) [Example 10, 1-(2-{2-amino-4H,5H,6H,7H-[1,3]thiazolo[5,4-c]pyridine-5-carbonyl}-1H-indol-4-yl)ethan-1-ol]
IC50 (HBV core protein): < 100 µM | EC50 (HBV): 1 to 10 µM

O=C(c1cc2ccccc2[nH]1)N1CCc2nc(NC3(c4c[nH]nn4)CC(F)(F)C3)sc2C1 [Example 430, N-[3,3-difluoro-1-(1H-1,2,3-triazol-4-yl)cyclobutyl]-5-(1H-indole-2-carbonyl)-4H,5H,6H,7H-[1,3]thiazolo[5,4-c]pyridin-2-amine]
IC50 (HBV core protein): < 5 µM | EC50 (HBV): < 1 µM

O=C(c1cc2c(CO)cccc2[nH]1)N1CCc2nc(NCC3CCOC3)sc2C1 (stereo not shown) [Example 245, [2-(2-{[(oxolan-3-yl)methyl]amino}-4H,5H,6H,7H-[1,3]thiazolo[5,4-c]pyridine-5-carbonyl)-1H-indol-4-yl]methanol]
IC50 (HBV core protein): < 100 µM | EC50 (HBV): < 1 µM

N#Cc1ccc(F)c2[nH]c(C(=O)N3CCc4nc(N)sc4C3)cc12 [Example 79, 2-{2-amino-4H,5H,6H,7H-[1,3]thiazolo[5,4-c]pyridine-5-carbonyl}-7-fluoro-1H-indole-4-carbonitrile]
IC50 (HBV core protein): < 100 µM | EC50 (HBV): 1 to 10 µM

CC(F)(F)c1cc(F)cc2[nH]c(C(=O)N3CCc4nc(NC(=O)C5CCOCC5)sc4C3)cc12 [Example 401, N-{5-[4-(1,1-difluoroethyl)-6-fluoro-1H-indole-2-carbonyl]-4H,5H,6H,7H-[1,3]thiazolo[5,4-c]pyridin-2-yl}oxane-4-carboxamide]
IC50 (HBV core protein): < 5 µM | EC50 (HBV): < 1 µM

O=C(c1cc2c(Cl)cccc2[nH]1)N1CCc2nc(NCC3(O)CCC3)sc2C1 [Example 311, 1-({[5-(4-chloro-1H-indole-2-carbonyl)-4H,5H,6H,7H-[1,3]thiazolo[5,4-c]pyridin-2-yl]amino}methyl)cyclobutan-1-ol]
IC50 (HBV core protein): < 5 µM | EC50 (HBV): < 1 µM

CC(C)(C)OC(=O)N1CCOC(CNc2nc3c(s2)CN(C(=O)c2cc4ccccc4[nH]2)CC3)C1 (stereo not shown) [Example 273, tert-butyl 2-({[5-(1H-indole-2-carbonyl)-4H,5H,6H,7H-[1,3]thiazolo[5,4-c]pyridin-2-yl]amino}methyl)morpholine-4-carboxylate]
IC50 (HBV core protein): 5 to 10 µM | EC50 (HBV): < 1 µM

O=C(c1cc2c(F)c(F)ccc2[nH]1)N1CCc2nc(NCC3(CO)CC3)sc2C1 [Example 252, [1-({[5-(4,5-difluoro-1H-indole-2-carbonyl)-4H,5H,6H,7H-[1,3]thiazolo[5,4-c]pyridin-2-yl]amino}methyl)cyclopropyl]methanol]
IC50 (HBV core protein): < 5 µM | EC50 (HBV): < 1 µM

O=C(c1cc2ccccc2[nH]1)N1CCc2nc(O)sc2C1 [Example 141, 5-(1H-indole-2-carbonyl)-4H,5H,6H,7H-[1,3]thiazolo[5,4-c]pyridin-2-ol]
IC50 (HBV core protein): < 100 µM | EC50 (HBV): 1 to 10 µM

Cc1nc2c(s1)CN(C(=O)c1cc3c(Cl)c(Cl)ccc3[nH]1)CC2 [Example 185, 4,5-dichloro-2-{2-methyl-4H,5H,6H,7H-[1,3]thiazolo[5,4-c]pyridine-5-carbonyl}-1H-indole]
IC50 (HBV core protein): < 100 µM | EC50 (HBV): < 100 µM

N#Cc1ccc2cc(C(=O)N3CCc4nc(N)sc4C3)[nH]c2c1 [Example 17, 2-{2-amino-4H,5H,6H,7H-[1,3]thiazolo[5,4-c]pyridine-5-carbonyl}-1H-indole-6-carbonitrile]
IC50 (HBV core protein): < 100 µM | EC50 (HBV): 1 to 10 µM

Nc1nc2c(s1)CN(C(=O)c1cc3c(F)c(F)c(F)cc3[nH]1)CC2 [Example 78, 5-(4,5,6-trifluoro-1H-indole-2-carbonyl)-4H,5H,6H,7H-[1,3]thiazolo[5,4-c]pyridin-2-amine]
IC50 (HBV core protein): < 5 µM | EC50 (HBV): < 1 µM

Cc1ccc(F)c2[nH]c(C(=O)N3CCc4nc(N)sc4C3)cc12 [Example 86, 5-(7-fluoro-4-methyl-1H-indole-2-carbonyl)-4H,5H,6H,7H-[1,3]thiazolo[5,4-c]pyridin-2-amine]
IC50 (HBV core protein): < 5 µM | EC50 (HBV): < 1 µM

Nc1nc2c(s1)CN(C(=O)c1cc3cc(F)cc(F)c3[nH]1)CC2 [Example 160, 5-(5,7-difluoro-1H-indole-2-carbonyl)-4H,5H,6H,7H-[1,3]thiazolo[5,4-c]pyridin-2-amine]
IC50 (HBV core protein): < 5 µM | EC50 (HBV): < 1 µM

O=C(c1cc2ccccc2[nH]1)N1CCc2nc(NC3(CO)CC3)sc2C1 [Example 230, (1-{[5-(1H-indole-2-carbonyl)-4H,5H,6H,7H-[1,3]thiazolo[5,4-c]pyridin-2-yl]amino}cyclopropyl)methanol]
IC50 (HBV core protein): < 5 µM | EC50 (HBV): < 1 µM
